Residue numbers refer to the chain shown, from its start. Like-named read-outs stand apart in the source and are kept apart here.
Columns and labels:
[1] = target: T1, mutant MGL (Homo sapiens, UniProt Q99685, L169S/L176S); assay: MGL ThermoFluor assay - mutant; assay type: binding
T1 sequence (Q99685 1-303 L169S/L176S): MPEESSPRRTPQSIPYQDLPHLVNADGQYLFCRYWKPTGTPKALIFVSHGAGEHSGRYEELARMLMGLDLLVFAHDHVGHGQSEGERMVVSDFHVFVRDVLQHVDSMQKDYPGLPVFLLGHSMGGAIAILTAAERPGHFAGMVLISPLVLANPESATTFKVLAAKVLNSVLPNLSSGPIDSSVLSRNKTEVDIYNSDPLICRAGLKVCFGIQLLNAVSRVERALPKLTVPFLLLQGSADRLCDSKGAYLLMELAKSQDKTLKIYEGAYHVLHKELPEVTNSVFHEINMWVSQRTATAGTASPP

[2] = target: T2, purified wild type MGL (wt-MGLL 6H-11-313) (Homo sapiens, UniProt Q99685)
T2 sequence (Q99685 1-303): T1 sequence (Q99685 1-303 L169S/L176S) with S169L, S176L

[3] = ThermoFluor, compound concentration measured by qNMR, read-out: MGL mutant ThermoFluor qKd (μM) (using qNMR conc.)
[4] = compound concentration measured by qNMR, read-out: MGL mutant ThermoFluor qKd (using qNMR conc.)
[5] = ThermoFluor concentration-response, read-out: MGL mutant ThermoFluor Kd
[6] = ThermoFluor thermal stability binding assay, read-out: MGL mutant ThermoFluor Kd

Row | Compound | Kd [1, 3] | IC50 [2] | also measured
1 | O=C(c1cc2ccc(-c3ccc(F)cc3)cc2[nH]1)N1CC(N2CCN(C(=O)c3nccs3)CC2)C1 [Cpd 1204] | 0.249 µM | 166 nM | 
2 | Cc1c(C(=O)N2CC(N3CCN(C(=O)c4nccs4)CC3)C2)[nH]c2ccc(-c3ccnn3C)cc12 [Cpd 1205] | 0.008 µM | 168 nM | 
3 | Cc1nc2cc(C(=O)N3CC(N4CCN(C(=O)c5nccs5)CC4)C3)ccc2n1-c1ccc(F)c(F)c1 [Cpd 1206] |  | 171 nM | Kd [1, 4]: 0.018 µM
4 | O=C(c1ccc2c(c1)ncn2-c1ccccc1)N1CC(N2CCN(C(=O)c3nccs3)CC2)C1 [Cpd 1207] |  | 179 nM | Kd [1, 5]: 0.014 µM
5 | O=C(c1cc2cc(-c3ccccc3)cnc2o1)N1CC(N2CCN(C(=O)c3nccs3)CC2)C1 [Cpd 1209] | 0.942 µM | 193 nM | 
6 | O=C(c1ccc2nc(-c3nccs3)sc2c1)N1CC(N2CCN(C(=O)c3nccs3)CC2)C1 [Cpd 1210] | 0.097 µM | 195 nM | 
7 | Cc1noc(C)c1-c1ccc2cc(C(=O)N3CC(N4CCN(C(=O)c5nccs5)CC4)C3)[nH]c2c1 [Cpd 1211] | 0.106 µM | 200 nM | 
8 | O=C(c1cc2cc(-c3ccc(F)cc3)cnc2o1)N1CC(N2CCN(C(=O)c3nccs3)CC2)C1 [Cpd 1213] | 0.765 µM | 206 nM | 
9 | Cc1nc2cc(C(=O)N3CC(N4CCN(C(=O)c5nccs5)CC4)C3)ccc2n1-c1ccc(C(F)(F)F)cc1 [Cpd 1215] |  | 216 nM | Kd [1, 4]: 0.006 µM
10 | Cc1nccc(-n2ccc3cc(C(=O)N4CC(N5CCN(C(=O)c6nccs6)CC5)C4)ccc32)n1 [Cpd 1216, 1-(2-Methylpyrimidin-4-yl)-5-({3-[4-(1,3-thiazol-2-ylcarbonyl)piperazin-1-yl]azetidin-1-yl}carbonyl)-1H-indole] |  | 216 nM | Kd ([1]; ThermoFluor, compound concentration measured by qNMR, read-out: MGL mutant ThermoFluor qKd (using qNMR conc.)): 0.022 µM
11 | O=C(c1nccs1)N1CCN(C2CN(C(=O)c3cccc4oc(-c5ccc(Cl)cc5)nc34)C2)CC1 [Cpd 1220] |  | 255 nM | Kd [1, 6]: 0.015 µM
12 | O=C(c1ccc(-c2ccccc2)cc1)N1CC(N2CCN(C(=O)c3cocn3)CC2)C1 [Cpd 1222] |  | 266 nM | Kd [1, 6]: 0.068 µM
13 | O=C(c1ccc(-n2cnc3ccccc32)cc1)N1CC(N2CCN(C(=O)c3nccs3)CC2)C1 [Cpd 1223] |  | 267 nM | Kd [1, 5]: 0.111 µM
14 | O=C(c1nccs1)N1CCN(C2CN(C(=O)c3cn(-c4ccc(F)cc4)c4ccccc34)C2)CC1 [Cpd 1224] | 0.189 µM | 270 nM | 
15 | Cc1nn(-c2ccc(Cl)c(Cl)c2)c(C)c1C(=O)N1CC(N2CCN(C(=O)c3nccs3)CC2)C1 [Cpd 1225] |  | 273 nM | Kd [1, 5]: 0.042 µM
16 | O=C(c1nccs1)N1CCN(C2CN(C(=O)c3cn(-c4cccc(F)c4)c4ccccc34)C2)CC1 [Cpd 1226] | 0.193 µM | 282 nM | 
17 | Cc1nc2cc(C(=O)N3CC(N4CCN(C(=O)c5nccs5)CC4)C3)ccc2n1-c1ccc(F)cc1 [Cpd 1227] |  | 287 nM | Kd [1, 4]: 0.011 µM
18 | O=C(c1cccc(-c2cccc(F)c2)c1)N1CC(N2CCN(C(=O)c3cscn3)CC2)C1 [Cpd 1228] |  | 295 nM | Kd [1, 5]: 1.42 µM
19 | Cc1nc2cc(C(=O)N3CC(N4CCN(C(=O)c5nccs5)CC4)C3)ccc2n1-c1ccccc1 [Cpd 1229] |  | 306 nM | Kd [1, 4]: 0.011 µM
20 | Cc1cn(-c2ccc(F)cc2)c2ccc(C(=O)N3CCN(C4CN(C(=O)c5cscn5)C4)CC3)cc12 [Cpd 1230, 1-(4-Fluorophenyl)-3-methyl-5-({4-[1-(1,3-thiazol-4-ylcarbonyl)azetidin-3-yl]piperazin-1-yl}carbonyl)-1H-indole] |  | 307 nM | Kd [1, 5]: 0.009 µM
21 | O=C(c1ccc2c(c1)ncn2-c1ccc(C(F)(F)F)cc1)N1CC(N2CCN(C(=O)c3cscn3)CC2)C1 [Cpd 1231] |  | 316 nM | Kd [1, 4]: 0.131 µM
22 | O=C(c1ccc(-c2ccccc2)cc1)N1CC(N2CCN(C(=O)C3CCC3)CC2)C1 [Cpd 1232] |  | 326 nM | Kd [1, 6]: 0.345 µM
23 | O=C(c1ccc2nc(-c3ccccc3)oc2c1)N1CCN(C2CN(C(=O)c3nccs3)C2)CC1 [Cpd 1233] |  | 343 nM | Kd [1, 6]: 0.19 µM
24 | O=C(c1cscn1)N1CCN(C2CN(C(=O)c3cccc4nc(-c5ccccc5)oc34)C2)CC1 [Cpd 1237] |  | 393 nM | Kd [1, 6]: 0.064 µM
